# Assays:
# [1] = tested on: choroid plexus (ChP) epithelial cells; experiment: Calcium imaging of LV ChP explants exposed to plasma; assay type: cell-based, mouse; conditions: LV ChP explant, FoxJ1-Cre::GCaMP6f mice
# Procedure: […] Imaging and analyses were performed as described (12). Plasma (using citrate as anti-coagulant instead of EDTA, same protocol as described above) was delivered to explants by topical application from a glass capillary needle and serum was delivered to the lateral ventricle of live mice during imaging through the injection cannula. Serum was prepared by collecting blood using the same approach as described above, incubating on ice for 30 min. and then centrifuging for 10 min. at 5,000 g twice to separate the supernatant.
# [2] = tested on: intraventricular hemorrhage (IVH) model; experiment: E14.5 IVH model with calcium signaling disruption (LiCl pretreatment or EDTA), MRI and infusion test; assay type: in vivo, mouse
# Description: Timed pregnant mice (E14.5) were anesthetized with isoflurane and kept warm. Following laparotomy, AAV solution or age-matched whole blood was delivered into the lateral ventricle of each embryo (located visually) using glass capillary pipettes. The uterine horns were returned to the abdomen and the incisions sutured. When age-matched whole blood was used, the donor mouse was anesthetized with ketamine/xylazine and warmed. Fresh blood was obtained from the jugular veins with a glass capillary pipette and immediately delivered to the recipient.
# Mice were imaged using Bruker BioSpec small animal MRI (7T) at P14 or P25 while under anesthesia by isoflurane. A warm pad was used to maintain body temperature. Breathing rate and heart rate were monitored to reflect the depth of anesthesia. All T2 images were acquired using the following criteria: TE/TR=60/4000; Ave=4; RARE=4; slice thickness=0.6 mm.
# Constant aCSF infusion testing was performed as previously described (23). In summary, a single catheter was implanted into the lateral ventricle of a mouse under anesthesia. The catheter infused aCSF at a constant rate and monitored intracranial pressure (ICP). The Marmarou model of cerebrospinal fluid (CSF) dynamics for constant rate infusions were used to calculate parameters describing cerebrospinal fluid (CSF) dynamics by a non-linear least squares fit of the model to the intracranial pressure (ICP) data (62).
# NKCC1 = experiment: LiCl ICV pretreatment in adult IVH model, ChP pNKCC1 immunoblot; assay type: in vivo, mouse; conditions: adult mice; ICV LiCl 50 mM, 5 μL, 30 min. prior to blood; after 48 hrs
# Description: P4: pups were anesthetized by hypothermia. An incision was made along the midline of the scalp to expose the skull. A 26 G needle was used to pierce the skull directly above the lateral ventricle. AAV solution or age-matched whole blood was delivered into the lateral ventricle through the piercing using glass capillary pipettes. The skin incision was closed with suture and Vetbond (3M, Minnesota). The pup was warmed and returned to cage after recovery. Whole blood was collected transcardially from littermates anesthetized by hypothermia. Adult: adult intracerebroventricular (ICV) injection followed similar procedures as P4 with the following exceptions: (1) adult mice were anesthetized using isoflurane; (2) a hand drill was used directly above the lateral ventricle; (3) blood donor was anesthetized using ketamine/xylazine.
# Tissues were quickly dissected in cold HBSS and homogenized in RIPA buffer supplemented with protease and phosphatase inhibitors. The homogenate was centrifuged at maximum speed for 10 min. to remove cellular debris. Protein concentration was determined by BCA assay (Thermo Scientific 23227). Samples were denatured in 2% SDS supplemented with 2-Mercaptoethanol by heating at 37° C. for 5 min. […] Band intensity was quantified by FIJI.
structure (smiles),measurement,setting,value
"NCCOB(c1ccccc1)c1ccccc1 [2-APB, 2-aminoethoxydiphenyl borate]",epifluorescence calcium responses to plasma,[1],disrupted
O=C(O)CN(CC(=O)O)c1ccccc1OCCOc1ccccc1N(CC(=O)O)CC(=O)O [BAPTA],epifluorescence calcium responses to plasma,[1],disrupted
"O=C(O)CN(CCN(CC(=O)O)CC(=O)O)CC(=O)O [EDTA, ethylenediaminetetraacetic acid]",ventriculomegaly,"[2]; E14.5, ICV injection of blood containing EDTA, 3 weeks after the injection",severe ventriculomegaly
same,epifluorescence calcium responses to plasma,[1],disrupted
"O=C(O)CN(CCOCCOCCN(CC(=O)O)CC(=O)O)CC(=O)O [EGTA, ethylene glycol-bis(β-aminoethyl ether)-N,N,N′,N′-tetraacetic acid]",epifluorescence calcium responses to plasma,[1],disrupted
"[Cl-].[Li+] [LiCl, lithium chloride]",ventriculomegaly,"[2]; E14.5, ICV LiCl 30 min. prior to blood, vs controls, MRI",more pronounced ventriculomegaly
same,ventricular enlargement in two extreme cases,"[2]; E14.5, LiCl pretreatment plus blood",over 200 fold
same,baseline intracranial pressure (ICP),[2]; LiCl pretreatment alone,does not change
same,compliance,[2]; LiCl pretreatment alone,does not change
same,ventricle size,[2]; LiCl treatment alone,did not affect ventricle size
same,intracranial pressure (ICP),[2]; LiCl-Blood mice compared to LiCl-PBS mice,unaltered
same,NKCC1 phosphorylation rate (pNKCC1),NKCC1,decreased NKCC1 phosphorylation rate
same,epifluorescence calcium responses to plasma,[1],disrupted
